Reference: patent publication US20210238169A1, “PROCESS FOR PREPARING A COMPOUND OF FORMULA (XIII)” (PULMOCIDE LIMITED, priority 2014, published 2021)
Values after ≈ are worked out from the molar mass of the structure shown. Read-outs that look alike come from different tables or passages of the source.

Experiments:
[1] = Cell viability: resazurin assay; type: cell-based, human; conditions: human, n = 1-5
Procedure: BEAS2B cells were seeded in 384-well plates (100 μL; 3000/well/; BD Falcon, Catalogue No 353962) in RPMI-LHC8 (RPMI-1640 and LHC8 media combined in equal proportions) one day before experimentation. For cell-free control wells, RPMI-LHC8 (100 μL) was added. Test compounds (0.5 μL of a DMSO solution) were added to give a final DMSO concentration of 0.5% using an Integra VIAFLO 96 (Integra, Zizers, Switzerland). BEAS2B cells were incubated with each test compound for 1 day (37° C./5% CO2 in RPMI-LHC8). After addition of resazurin stock solution (5 μL, 0.04%) the plates were incubated for a further 4 hr (37° C./5% CO2). The fluorescence of each well at 545 nm (excitation) and 590 nm (emission) was determined using a multi-scanner (Clariostar: BMG Labtech). The percentage loss of cell viability was calculated for each well relative to vehicle (0.5% DMSO) treatment. Where appropriate, a CC50 value was calculated from the concentration-response curve generated from the concentration-response curve for each test compound.

[2] = test system: Candida albicans; assay: Fungus panel screening, CLSI broth microdilution; type: cell-based; conditions: for MIC50 / MIC: Candida albicans; for MIC: read-out: MIC100
Procedure: (§1) Fungus panel screening was conducted by Eurofins Panlabs Inc. The MIC and MIC50 values of the test articles were determined following the guidelines of the Clinical and Laboratory Standards Institute, broth microdilution methods for yeast (CLSI M27-A2), (CLSI, 2002) and for filamentous fungi (CLSI M38-A), (CLSI, 2008).

[3] = test system: Candida glabrata; assay: Fungus panel screening, CLSI broth microdilution; type: cell-based; conditions: Nakaseomyces glabratus; for MIC: read-out: MIC100
Procedure: as §1

[4] = test system: Chaetomium globosum; assay: Fungus panel screening, CLSI broth microdilution; type: cell-based; conditions: strain ATCC44699, visual inspection (CLSI); for MIC: read-out: MIC100
Procedure: as §1

[5] = test system: Penicillium chrysogenum; assay: Fungus panel screening, CLSI broth microdilution; type: cell-based; conditions: strain ATCC9480, visual inspection (CLSI); for MIC: read-out: MIC100
Procedure: as §1

[6] = test system: Rhizopus oryzae; assay: Fungus panel screening, CLSI broth microdilution; type: cell-based; conditions: Rhizopus arrhizus, strain ATCC11145, visual inspection (CLSI); for MIC: read-out: MIC100
Procedure: as §1

[7] = test system: Trichophyton rubrum; assay: Fungus panel screening, CLSI broth microdilution; type: cell-based; conditions: strain ATCC10218, visual inspection (CLSI); for MIC: read-out: MIC100
Procedure: as §1

[8] = test system: Aspergillus fumigatus (ATCC 13073); assay: IFNγ, IL-17 and MDA levels in BALF of Aspergillus fumigatus infected mice; type: in vivo; conditions: for ID50, IFNγ in BALF / ID50, IL-17 in BALF / ID50, MDA in BALF: Prophylactic Regimen
Procedure: Aspergillus fumigatus (ATCC 13073 [strain: NIH 5233], American Type Culture Collection, Manassas, Va., USA) was grown on Malt agar (Nissui Pharmaceutical, Tokyo, Japan) plates for 6-7 days at RT (24±1° C.). Spores were aseptically dislodged from the agar plates and suspended in sterile distilled water with 0.05% Tween 80 and 0.1% agar. On the day of infection, spore counts were assessed by haemocytometer and the inoculum was adjusted to obtain a concentration of 1.67×10^8 spores mL^−1 of physiological saline.
On day 0, animals were infected with the spore suspension (35 μL intra-nasally).
Test compounds were administered intra-nasally ([…]) once daily, 30 min before infection on day 0 and then on days 1, 2 and 3 (representing prophylactic treatment) or on days 1, 2 and 3 only (representing therapeutic treatment). For extended prophylactic treatment, test compounds (35 μL of a suspension of 0.0032 or 0.016 mg/mL in physiological saline) were administered intra-nasally once daily for seven days; then 30 min before infection on day 0, and thereafter, either on days 1, 2 and 3 after infection, or on day 0 only. The effects of these treatment paradigms were compared with those obtained when treatment was restricted to one day and 30 min before inoculation and then on days 1, 2 and 3 post infection; or reduced still further to one day and 30 min before infection only.
Six hours after the last dose, animals were anesthetised, the trachea was cannulated and BALF was collected. The total number of alveolar cells was determined using a haemocytometer, and the numbers of alveolar macrophages and neutrophils were determined by FACS analysis (EPICS® ALTRA II, Beckman Coulter, Inc., Fullerton, Calif., USA) using anti-mouse MOMA2-FITC (macrophage) or anti-mouse 7/4 (neutrophil), respectively, as previously reported (Kimura et al., 2013). The levels of IFN-γ and IL-17 in BALF, and IL-6 and TNFα in serum were determined using Quantikine® mouse IFN-γ, IL-17, IL-6 or TNF-α ELISA kit (R&D systems, Inc., Minneapolis, Minn., USA) respectively. MDA, an oxidative stress marker, was assayed using OxiSelect® TBARS Assay Kits (MDA Quantitation; Cell Biolabs Inc, San Diego, Calif., USA). Aspergillus GM in serum was determination using Platelia GM-EIA kits (Bio-Rad Laboratories, Redmond, Wash., USA). Cut-off index was calculated by the formula: Cut-off index=OD in sample/OD in cut-off control provided in kit. For tissue fungal load assays, 100 mg of lung tissue was removed aseptically and homogenized in 0.2 mL of 0.1% agar in sterile distilled water. Serially diluted lung homogenates were plated on Malt agar plates (50 μL/plate), and incubated at 24±1° C. for 72 to 96 h. The colonies of A. fumigatus on each plate was counted and the fungal titre presented as CFU per gram of lung tissue.

[9] = ATCC10231, strain ATCC10231, visual inspection (CLSI)
[10] = strain 20183.073, visual inspection (CLSI)
[11] = strain 20186.025, visual inspection (CLSI)
[12] = strain 20240.047, visual inspection (CLSI)
[13] = strain ATCC10231, visual inspection (CLSI)
[14] = strain ATCC36583, visual inspection (CLSI)
[15] = strain R363, visual inspection (CLSI)
[16] = prophylactic, 0.08 mg/mL intra-nasally
[17] = prophylactic, 0.4 mg/mL intra-nasally
[18] = prophylactic, 2 mg/mL intra-nasally
[19] = therapeutic, 0.4 mg/mL intra-nasally
[20] = therapeutic, 2 mg/mL intra-nasally
[21] = therapeutic, 10 mg/mL intra-nasally

Cc1cc(N2CCN(c3ccc(C(=O)Nc4ccc(F)cc4)cc3)CC2)ccc1OC[C@@H]1CO[C@@](Cn2cncn2)(c2ccc(F)cc2F)C1 [Compound (I), 4-(4-(4-(((3R,5R)-5-((1H-1,2,4-triazol-1-yl)methyl)-5-(2,4-difluorophenyl)tetrahydrofuran-3-yl)methoxy)-3-methylphenyl)piperazin-1-yl)-N-(4-fluorophenyl)benzamide]
CC50 at 1 day ([1]; BEAS2B cells): > 12.2 µM | MIC50 [2, 9]: 0.13 µg/mL (≈ 0.19 µM) | MIC50 [2, 10]: 0.5 µg/mL (≈ 0.732 µM) | MIC50 [2, 11]: > 8 µg/mL | MIC50 [2, 12]: 0.031 µg/mL (≈ 0.0454 µM) | MIC [2, 12]: > 8 µg/mL | MIC [2, 13]: > 8 µg/mL | MIC50 [3, 14]: 0.5 µg/mL (≈ 0.732 µM) | MIC [3, 14]: > 8 µg/mL | MIC50 [3, 15]: 0.5 µg/mL (≈ 0.732 µM) | MIC [3, 15]: > 8 µg/mL | MIC50 [4]: 0.063 µg/mL (≈ 0.0923 µM) | MIC [4]: > 8 µg/mL | MIC50 [5]: 0.031 µg/mL (≈ 0.0454 µM) | MIC [5]: > 8 µg/mL | MIC50 [6]: 0.063 µg/mL (≈ 0.0923 µM) | MIC [6]: 2 µg/mL (≈ 2.93 µM) | MIC50 [7]: < 0.008 µg/mL | MIC [7]: 0.031 µg/mL (≈ 0.0454 µM) | ID50, IFNγ in BALF [8]: <80 µg/mL | ID50, IL-17 in BALF [8]: 74 µg/mL (≈ 108 µM) | ID50, MDA in BALF [8]: 110 µg/mL (≈ 161 µM) | IFNγ concentration in BALF [8, 16]: 3.7 ± 1.7 pg/mL | IFNγ in BALF, % Inhibition [8, 16]: 60% | IL-17 concentration in BALF [8, 16]: 9.8 ± 5.3 pg/mL | IL-17 in BALF, % Inhibition [8, 16]: 51% | MDA concentration in BALF [8, 16]: 0.96 ± 0.32 µg/mL | MDA in BALF, % Inhibition [8, 16]: 47% | IFNγ concentration in BALF [8, 17]: 3.0 ± 0.8 pg/mL | IFNγ in BALF, % Inhibition [8, 17]: 67% | IL-17 concentration in BALF [8, 17]: 6.7 ± 4.9 pg/mL | IL-17 in BALF, % Inhibition [8, 17]: 66% | MDA concentration in BALF [8, 17]: 0.57 ± 0.22 µg/mL | MDA in BALF, % Inhibition [8, 17]: 68% | IFNγ concentration in BALF [8, 18]: 2.5 ± 0.3 pg/mL | IFNγ in BALF, % Inhibition [8, 18]: 73% | IL-17 concentration in BALF [8, 18]: 3.2 ± 0.8 pg/mL | IL-17 in BALF, % Inhibition [8, 18]: 84% | MDA concentration in BALF [8, 18]: 0.34 ± 0.05 µg/mL | MDA in BALF, % Inhibition [8, 18]: 81% | IFNγ concentration in BALF [8, 19]: 4.3 ± 2.2 pg/mL | IFNγ in BALF, % Inhibition [8, 19]: 53% | IL-17 concentration in BALF [8, 19]: 8.5 ± 2.9 pg/mL | IL-17 in BALF, % Inhibition [8, 19]: 57% | MDA concentration in BALF [8, 19]: 0.45 ± 0.10 µg/mL | MDA in BALF, % Inhibition [8, 19]: 75% | IFNγ concentration in BALF [8, 20]: 3.3 ± 0.8 pg/mL | IFNγ in BALF, % Inhibition [8, 20]: 64% | IL-17 concentration in BALF [8, 20]: 4.0 ± 0.8 pg/mL | IL-17 in BALF, % Inhibition [8, 20]: 80% | MDA concentration in BALF [8, 20]: 0.37 ± 0.10 µg/mL | MDA in BALF, % Inhibition [8, 20]: 79% | IFNγ concentration in BALF [8, 21]: 2.1 ± 0.3 pg/mL | IFNγ in BALF, % Inhibition [8, 21]: 77% | IL-17 concentration in BALF [8, 21]: 2.9 ± 0.7 pg/mL | IL-17 in BALF, % Inhibition [8, 21]: 85% | MDA concentration in BALF [8, 21]: 0.25 ± 0.05 µg/mL | MDA in BALF, % Inhibition [8, 21]: 86%

CC[C@@H]([C@H](C)O)n1ncn(-c2ccc(N3CCN(c4ccc(OC[C@@H]5CO[C@@](Cn6cncn6)(c6ccc(F)cc6F)C5)cc4)CC3)cc2)c1=O [Posaconazole]
CC50 at 1 day ([1]; BEAS2B cells): > 14.3 µM | MIC50 [2, 9]: 0.13 µg/mL (≈ 0.186 µM) | MIC50 [2, 10]: 0.25 µg/mL (≈ 0.357 µM) | MIC50 [2, 11]: > 8 µg/mL | MIC50 [2, 12]: 0.031 µg/mL (≈ 0.0442 µM) | MIC [2, 12]: > 8 µg/mL | MIC [2, 13]: > 8 µg/mL | MIC100 [2, 11]: >8.0 µg/mL | MIC50 [3, 14]: 0.5 µg/mL (≈ 0.713 µM) | MIC [3, 14]: > 8 µg/mL | MIC50 [3, 15]: 0.5 µg/mL (≈ 0.713 µM) | MIC [3, 15]: > 8 µg/mL | MIC50 [4]: 0.13 µg/mL (≈ 0.186 µM) | MIC [4]: 0.25 µg/mL (≈ 0.357 µM) | MIC50 [5]: 0.063 µg/mL (≈ 0.0899 µM) | MIC [5]: 0.13 µg/mL (≈ 0.186 µM) | MIC50 [6]: 0.13 µg/mL (≈ 0.186 µM) | MIC [6]: > 8 µg/mL | MIC50 [7]: < 0.008 µg/mL | MIC [7]: 0.031 µg/mL (≈ 0.0442 µM) | ID50, IFNγ in BALF [8]: 220 µg/mL (≈ 314 µM) | ID50, IL-17 in BALF [8]: 610 µg/mL (≈ 870 µM) | ID50, MDA in BALF [8]: 690 µg/mL (≈ 985 µM)

C[C@@H](c1ncncc1F)[C@](O)(Cn1cncn1)c1ccc(F)cc1F [Voriconazole]
CC50 at 1 day ([1]; read-out: BEAS2B Cell Viability CC50): > 28.6 µM | MIC50 [2, 9]: 0.25 µg/mL (≈ 0.716 µM) | MIC50 [2, 10]: 4 µg/mL (≈ 11.5 µM) | MIC50 [2, 11]: > 8 µg/mL | MIC50 [2, 12]: 0.031 µg/mL (≈ 0.0887 µM) | MIC [2, 12]: > 8 µg/mL | MIC [2, 13]: > 8 µg/mL | MIC100 [2, 11]: >8.0 µg/mL | MIC50 [3, 14]: 0.25 µg/mL (≈ 0.716 µM) | MIC [3, 14]: > 8 µg/mL | MIC50 [3, 15]: > 8 µg/mL | MIC [3, 15]: > 8 µg/mL | MIC50 [4]: 0.5 µg/mL (≈ 1.43 µM) | MIC [4]: 1 µg/mL (≈ 2.86 µM) | MIC50 [5]: 1 µg/mL (≈ 2.86 µM) | MIC [5]: 2 µg/mL (≈ 5.73 µM) | MIC50 [6]: 8 µg/mL (≈ 22.9 µM) | MIC [6]: > 8 µg/mL | MIC50 [7]: < 0.008 µg/mL | MIC [7]: 0.063 µg/mL (≈ 0.18 µM)
